# Results from US8487009B2, “1,2-diphenylethene derivatives for treatment of immune diseases” (Glaxo Group Limited, priority 2001, dated 2013).
# pIC50: −log10 of the molar value. Like-named read-outs stand apart in the source and are kept apart here.
# What was measured:
# [1] = system: T-cell proliferation; experiment: T-cell proliferation ([3H]thymidine uptake, C57BL/6 responders with mitomycin C treated BALB/C feeder cells); type: cell-based; details: murine T-cells, read-out: Concentration that provides 50% inhibition of T-cell proliferation, IC50
# Procedure: T-cell assay is commonly employed as a primary platform for testing of activities that modulate immune and inflammatory activities in many diseases. Assays of antigen non-specific T-cell proliferation and antigen-specific proliferation are often used in the tests.
# (§1) To determine the effect of the inventive compounds on non-specific and specific antigen induced T-cell proliferation, compounds were tested at a range of concentrations as outlined by the following protocol: Murine lymph nodes were removed aseptically and cell suspensions were prepared in RPMI-1640. Single lymphocytes were isolated over Lymphocyte-M by centrifugation at 22° C. and 1800 g for 15 min, and then washed three times (500 g for 5 min at 22° C.). Adherent cells were depleted by cytoadherence to fibronectin-coated plastic culture dish (twice at 37° C. for 45 min). T-cells isolated by incubating cell suspensions in a nylon wool column for 2 h at 37° C. and use for subsequent experiments were greater than 95% viable, as determined by trypan blue exclusion. Feeder cells were prepared by treating BALB/C spleen cells with mitomycin C (50 μg/ml, for 20 min at 37° C.) followed by five times washing using a large volume of Hank's solution. C57BL/6 Responders (2×10^5) was incubated in duplicate with the mitomycin C treated BALB/C feeder cells (2×10^5) in 96-well, round-bottomed, microtitre plates (Costar Laboratories, Worcester, Mass.) with complete medium (RPMI 1640 with 25 mM Hepes and L-glutamine supplemented with […] 2-mercapto-ethanol, 10% fetal cow serum (FCS), 10,000 unit of penicillin, and 10 mg of streptomycin per 100 ml of medium) at 37° C., 5% CO2. After 96 h, the culture wells received [^3H]thymidine ([^3H]TdR; 1 μCi/well) and proliferation was assessed at 16 h by harvesting cells onto glass fiber filter paper and counting in a β-counter.
# [2] = system: IL-2 production; experiment: IL-2 production from Con A activated T-cells (ELISA); type: cell-based, murine; details: read-out: Inhibitory activity against IL-2 production, IC50
# Procedure: as §1
# (§2) To determine the effect of inventive compounds on IL-2, IL-4 and IFN-γ production from activated T-cells, the following assays were performed using the protocol outlined above for T-cells. The T-cell was activated by concanavalin A (Con A) and incubated, cytokines in the supernatants were assayed by commercial immune-linked immunosorbent assay (ELISA) kits.
# [3] = system: TNF-α production; experiment: TNF-α production by macrophage cells (ELISA); type: cell-based; details: murine macrophage cells, 24 h; for activity at 10 µM: Mus musculus, read-out: Effect on TNF-α production, % of control; for Effect on TNF-α production, % of control: 10 μM
# Excerpt: (§3) Macrophages are very important components of the host defense system, but they are also involved in the development of tissue injury during inflammation in some human disease. Efficient antagonists can block subsequent symptoms (skin redness, edema, pain and dysfunction) of inflammation. CD86 expression, nitric oxide and TNF-α production are experimental indicators of macrophage function in vivo. CD86 expression by antigen presenting cells, including dendritic cells, macrophages and activated B cells, is necessary for interaction with T-cell CD28, which is necessary for T-cells to be fully activated. Nitric oxide is a potent microbiological macrophage product. TNF-α is a pro-inflammatory cytokine important in recruitment and stimulation of inflammatory cells. The effect of inventive compounds on the TNF-α production by macrophage cells was tested using the following protocol: Murine macrophage cells were lifted from adherent culture and resuspended in 10% FCS in DMEM. Cells (5×10^4/well) were aliquoted into flat bottom, tissue culture-treated microtitre plates and lipolysaccharide, N-acetylcysteine, test compound or vehicle controls were added. The cells were incubated at 37° C., 5% CO2 for 24 h and the culture supernatant removed for TNF-α ELISA, and CD86 expression was determined by FACS analysis on flow cytometer.
# [4] = system: CD86 expression in murine macrophages; experiment: CD86 expression in murine macrophages (FACS); type: cell-based; details: 10 μM, 24 h
# Excerpt: as §3
# [5] = system: IFN-γ; experiment: IFN-γ production from Con A activated T-cells (ELISA); type: cell-based, murine; details: read-out: Concentration for 50% of inhibition of IFN-γ, IC50
# Procedure: as §1, §2
# [6] = system: histamine release by mast cells; experiment: Histamine release by mast cells derived from mouse bone marrow (hexosamindase activity); type: cell-based; details: Mast cell, read-out: Effect on histamine release by mast cells, IC50
# Procedure: Histamine is an important mediator and is involved in a wide range of biological activities, including inflammation and allergy. The activity of representative compounds, against histamine release was tested using a standard mast cell assay (Arquardt, C. et al. 1986. Am Rev Respir Dis 133:1105-1109). The mast cells were derived from mouse bone marrow. The histamine release was measured by the hexosamindase activity.
# [7] = system: induced edema in Balb/c mouse; experiment: TPA induced mouse ear edema model; type: in vivo; details: single topical administration
# Procedure: Briefly, Balb/c mouse ear edema was induced by phorbol-12-myristate-13-acetate (TPA) by adding 20 ul of 0.01% (w/v) to the right ear of each mouse. Each test compound dissolved in the same vehicle (ethanol) as TPA was applied separately to the right ear of each moue. The mouse ear edema of each test compound was compared with that of the TPA and expressed as % of inhibition.
# [8] = system: crystal induced neutrophil activation; experiment: Crystal (calcium pyrophosphate dihydrate) induced neutrophil activation, chemoluminescence; type: cell-based, human; details: 25 μM
# Procedure: (§4) Neutrophils predominate over other cell types in many variants of acute and chronic inflammatory condition. Effect of the inventive compounds was tested on human neutrophil activation by chemoattractant [N-formyl-methionyl-luecyl-phenylalanine (FMPL)] and crystal (calcium pyrophosphate dihydrate) using an established protocol (Tudan, C. 1999. Biochem. Pharmacol 58:1869-1880).
# (§5) Neutrophils were prepared from freshly collected human citrated whole blood. Briefly, 400 ml of blood were mixed with 80 ml of 4% dextran in Hanks buffered saline solution (HBSS) pH 7.4 and allowed to settle for 1 hour. Plasma was collected continuously and 5 ml applied to 5 ml of Ficoll Paque (Pharmacia) in 15 ml polypropylene tubes. Following centrifugation at 500 g for 30 minutes, the neutrophil pellets were washed free of erythrocytes by 20 seconds of hypotonic shock. Neutrophils were resuspended in HBSS, kept on ice and used for experiments within 3 h. Neutrophil viability and purity was always greater than 90%. Solutions of test compounds were added to neutrophils at 5,000,000 cells per ml under mild vortexing. Cells were incubated for 20 minutes at 33° C. then for 10 minutes at 37° C. before addition to crystals or chemoattractants for neutrophil activation. Chemoluminescence was monitored using an luminometer at 37° C.
# [9] = system: FMLP induced neutrophil activation; experiment: FMLP induced neutrophil activation, chemoluminescence; type: cell-based; details: Homo sapiens, read-out: FMLP induced neutrophil activation, Chemoluminescence (mV), % of control
# Procedure: as §4, §5
SMILES,"pIC50 ([1]; Mus musculus, T-cell)","pIC50 ([2]; Mus musculus, T-cell)","Effect on CD86 expression in murine macrophages, % of control [4] [%]","pIC50 ([5]; Mus musculus, T-cell)",pIC50 [1],also measured
"CC(=Cc1cc(O)cc(O)c1)c1ccccc1 [5-(2-Methyl-2-phenylethenyl)-1,3-benzenediol]",5.33,5.75,90,–,–,activity at 10 µM [3]: 42%
"CC(C)c1c(O)cc(C=Cc2cccs2)cc1O [2-i-Propyl-5-(2-thiophene-2-ylethenyl)-1,3-benzenediol]",5.29,7.55,2,7.10,–,activity at 10 µM [3]: 50%; pIC50 [6]: 4.72
"CC(C)c1c(O)cc(C=C(C#N)c2ccccc2)cc1O [3-(3,5-Dihydroxy-4-i-propylphenyl)-2-phenylpropenylnitrile]",–,–,16,–,5.74,pIC50 [5]: 6.15
"CC(=Cc1ccccc1)c1cc(O)c(C(C)C)c(O)c1 [5-(1-Methyl-2-phenylethenyl)-2-i-propyl-1,3-benzenediol]",5.83,–,0,5.79,–,–
"CC(C)c1c(O)cc(C(C#N)=Cc2ccccc2)cc1O [2-(3,5-Dihydroxy-4-i-propylphenyl)-3-phenylpropenylnitrile]",–,–,–,–,5.46,"pIC50 [2]: 6.89; pIC50 [5]: 6.07; Effect on TNF-α production, % of control [3]: 60%; % inhibition of edema [7]: 85.2%"
"CC(=Cc1cc(O)c(C(C)C)c(O)c1)c1ccccc1 [5-(2-Methyl-2-phenylethenyl)-2-i-propyl-1,3-benzenediol]",5.94,6.40,51,–,–,"Crystal induced neutrophil activation, chemoluminescence (mV) as % of the control ([8]; time 1 minute): 23%; Crystal induced neutrophil activation, chemoluminescence (mV) as % of the control ([8]; time 2 minutes): 10%; Crystal induced neutrophil activation, chemoluminescence (mV) as % of the control ([8]; time 3 minutes): 7%; Crystal induced neutrophil activation, chemoluminescence (mV) as % of the control ([8]; time 4 minutes): 6%; Crystal induced neutrophil activation, chemoluminescence (mV) as % of the control ([8]; time 5 minutes): 6%; Crystal induced neutrophil activation, chemoluminescence (mV) as % of the control ([8]; time 7 minutes): 16%; Crystal induced neutrophil activation, chemoluminescence (mV) as % of the control ([8]; time 10 minutes): 29%; activity at 25 µM [9]: 30%"
CC(C)c1c(O)cc(C=Cc2ccccn2)cc1O.Cl [2-[2-(3.5-Dihydroxy-4-i-propylphenyl)ethenyl]pyridine hydrochloride],–,–,88,–,5.68,"Effect on TNF-α production, % of control [3]: 75%"
"C=C1/C(=C\C=C2/CCC[C@]3(C)[C@@H]([C@H](C)CCCC(C)(C)O)CC[C@@H]23)C[C@@H](O)C[C@@H]1O [calcitriol, reference compound]",–,–,–,–,–,% inhibition of edema ([7]; 0.01% calcitriol): 31.2%
"CC(C)c1c(O)cc(C=C(c2ccccc2)c2ccccc2)cc1O [5-(2,2-Diphenylethenyl)-2-i-propyl-1,3-benzenediol]",–,–,10,5.77,–,–
